Counter-ions that a name gives are not always drawn. Like-named read-outs stand apart in the source and are kept apart here.
Key:
intact rats [1] = assay: Effect of hypouricemic agents on endogenous IS pharmacokinetics in intact rats; conditions: for Effect on plasma concentration of endogenous IS: in words; for Kidney IS concentration compared with control: endogenous IS, at 4 h
Protocol: Thirty minutes after drug administration, 0.3 mg/kg d^4-IS dissolved in saline was intravenously administered via the tail vein to all rats. Blood samples were obtained from the jugular vein at 0.083, 0.25, 0.5, 1, 2, and 4 h after d^4-IS administration using a heparinized needle and kept on ice, and then the kidney was isolated with the rats under isoflurane anesthesia. Plasma was obtained by centrifuging the blood samples at 1000 × g for 10 min at 4 °C. To prepare the kidney sample, 4-times volume of saline was added to the sample and homogenized.
Endogenous IS and d^4-IS were determined in these samples as previously described with slightly modifications[10]. Briefly, the plasma and kidney homogenates were deproteinized using the internal standard containing methanol. These samples were measured using a liquid chromatography-tandem mass spectrometry (LC–MS/MS) systems consisting of a Nexera X2 and a Prominence instrument (Shimadzu Corp., Kyoto, Japan) coupled with QTRAP4500 (AB SCIEX, LLC., Framingham, MA). Pharmacokinetic parameters (AUC0-4 hr, C0, V0, T1/2, and CLtot) were analyzed using the Phoenix WinNonlin 6.4 software (Certara, L.P., Princeton, NJ). Some pharmacokinetic parameters were calculated using the following equations, in which "IS" means endogenous IS or d^4-IS. CLR, plasma = (urine IS concentration × urine volume) / AUC0-4 hr. CLR, kidney = (urine IS concentration × urine volume) / (kidney IS concentration at 4 h × 4). Kp = kidney IS concentration at 4 h / plasma IS concentration at 4 h.

intact rats [2] = assay: Effect of hypouricemic agents on pharmacokinetics of intravenously administered d4-IS in intact rats; assay type: in vivo, Wistar rats; design: concentration or dose not given beside the values
[3] = Plasma concentration of hypouricemic agents in intact and adenine-induced acute renal failure rats; assay type: in vivo, Wistar rats; conditions: Supplemental Fig. 2; in words
Protocol: Supplemental Fig. 1 Full-length blots/gels of renal expression of OAT1 (A/D), OAT3 (B/E), and ABCG2 (C/F) protein in intact and adenine-induced acute renal failure rats The chemiluminescence in blots and the proteins in gels were detected using ChemiDoc XRS Plus (Bio-Rad Laboratories, Inc.).
Supplemental Fig. 2 Plasma concentration of hypouricemic agents in intact rats and adenine-induced acute renal failure rats
Plasma drug concentration was measured using the same samples for measuring endogenous IS and d4-IS. Plasma samples were deproteinated with thrice volume of methanol and centrifuged at 1,000 × g for 10 min at 4°C. Drug concentrations were measured using the Alliance 2695 HPLC system (Waters Corporation. Milford, MA).

[4] = design: method as in Pharmaceuticals and Medical Devices Agency; conditions: ref Pharmaceuticals and Medical Devices Agency; cited from earlier work
[5] = design: method as in Pharmaceuticals and Medical Devices Agency; conditions: ref Pharmaceuticals and Medical Devices Agency, read-out: Cmax at clinical dose, cited from earlier work
[6] = system: adenine-induced acute renal failure rats; assay: Effect of hypouricemic agents on pharmacokinetics of d4-IS in adenine-induced acute renal failure rats; assay type: in vivo, Wistar rats; conditions: in words
Protocol: Wistar rats were orally administered 600 mg/kg of adenine, once daily for 5 days. One week after the last administration, urine samples were collected for 4 h. Furthermore, blood samples were obtained from the jugular vein under the isoflurane anesthesia. […] Creatinine level in the plasma and urine was measured using the U-3900 spectrophotometer (Hitachi High-Tech Science Corp., Tokyo, Japan) with the L-type Wako Creatinine F kit (Wako Pure Chemical Industries, Ltd., Osaka, Japan). Creatinine clearance (CLCRE) was calculated using the following equation: CLCRE = [urine creatinine level (mg/dl) × urine volume (ml/min)] / plasma creatinine level (mg/dl) / body weight (kg). […] Four days later, the rats were selected based on the weight and serum creatinine level, and used in the study. In the intact group, the rats were used 4 days after the urine and blood sampling.

[7] = design: method as in PMID 29016645; conditions: in humans; cited from earlier work

**Q.** With `CCc1oc2ccccc2c1C(=O)c1cc(Br)c(O)c(Br)c1` [Benzbromarone] as the compound, how does the “Effect on plasma concentration of endogenous IS” value (from here on “Effect … of endogenous IS”) (intact rats [1]) read?
**A.** Its value is “did not have any effects”.

**Q.** What about the “Decrease of CLR, plasma of d4-IS compared with control” value (intact rats [2]) of the same compound?
**A.** Its value is 43%.

**Q.** And the “Decrease of CLtot of d4-IS compared with control” value (intact rats [2])?
**A.** The value was 34%.

**Q.** And the “Plasma concentrations of the drugs in adenine-induced acute renal failure rats versus intact rats” value [3]?
**A.** The value was “not lower than those in intact rats”.

**Q.** With `O=C(c1cc(Cl)c(O)c(Cl)c1)N1CS(=O)(=O)c2ccccc21` [Dotinurad] as the compound, how does the “Effect … of endogenous IS” value (intact rats [1]) read?
**A.** Its value is “did not have any effects”.

**Q.** What about the “fu (unbound fraction rate)” value [4] of the same compound?
**A.** Its value is 0.007.

**Q.** And the Cmax ([5]; Cmax of q.d. administration, at a dose of 4 mg, for 1 weeks)?
**A.** The Cmax was 1.2 µM.

**Q.** What about the “Effect on plasma concentration of d4-IS” value [6] of the same compound?
**A.** The value was “did not have any effect”.

**Q.** For `Cc1nc(-c2ccc(OCC(C)C)c(C#N)c2)sc1C(=O)O` [Febuxostat], which “Decrease of CLR, kidney of endogenous IS compared with control” value (intact rats [1]) is on record?
**A.** The value was 93%.

**Q.** And the “Decrease of CLR, plasma of endogenous IS compared with control” value (intact rats [1])?
**A.** The value was 39%.

**Q.** What about the “Increase of AUC0-4 hr of endogenous IS compared with control” value (intact rats [1]) of the same compound?
**A.** The value was 85%.

**Q.** What about the “Kidney IS concentration compared with control” value (intact rats [1]) of the same compound?
**A.** The value was 15.1 times.

**Q.** And the “Effect … of endogenous IS” value (intact rats [1])?
**A.** Its value is “significantly increased”.

**Q.** What about the “Decrease of CLR, kidney of d4-IS compared with control” value (intact rats [2]) of the same compound?
**A.** Its value is 94%.

**Q.** What about the “Decrease of CLR, plasma of d4-IS compared with control” value (intact rats [2]) of the same compound?
**A.** Its value is 35%.

**Q.** What about the “Decrease of CLtot of d4-IS compared with control” value (intact rats [2]) of the same compound?
**A.** The value was 44%.

**Q.** What about the “Plasma concentrations of the drugs in adenine-induced acute renal failure rats versus intact rats” value [3] of the same compound?
**A.** The value was “not lower than those in intact rats”.

**Q.** For `O=S(=O)(O)Oc1c[nH]c2ccccc12` [IS, Indoxyl sulfate], which “plasma protein binding ratio” value [7] is on record?
**A.** The value was 93%.

**Q.** What does the source list for `CCCN(CCC)S(=O)(=O)c1ccc(C(=O)O)cc1` [Probenecid]?
**A.** Decrease of CLR, plasma of endogenous IS compared with control (intact rats [1]): 73%; Increase of AUC0-4 hr of endogenous IS compared with control (intact rats [1]): 244%; Kidney IS concentration compared with control (intact rats [1]): 1.7 times; Effect on plasma concentration of endogenous IS (intact rats [1]): significantly increased; fu (unbound fraction rate) [4]: 0.11; Decrease of CLR, plasma of d4-IS compared with control (intact rats [2]): 78%; Decrease of CLtot of d4-IS compared with control (intact rats [2]): 80%; Cmax ([5]; mean concentration of q.i.d. administration, at a dose of 2 g, for 4 weeks): 79 µM; Plasma concentrations of the drugs in adenine-induced acute renal failure rats versus intact rats [3]: not lower than those in intact rats; Effect on plasma concentration of d4-IS [6]: moderate but significant increase

From article PMC8012596, “Hypouricemic agents reduce indoxyl sulfate excretion by inhibiting the renal transporters OAT1/3 and ABCG2” (Scientific Reports, 2021)
